# Assay results: patent US6288056A, “Intermittent claudication therapeutic drugs comprising pyrroloazepines” (Suntory Limited, priority 1999, dated 2001)
# Read-outs that look alike come from different tables or passages of the source.
# Columns and labels:
# [1] = tested on: pulmonary thromboembolic death; assay: Inhibitory Action in Mouse Pulmonary Thromboembolic Death; type: in vivo, male ddY mice; details: 3 mg/kg oral; within 10 minutes after injection of collagen 1 mg/kg and serotonin hydrochloride 5 mg/kg
# Protocol: Male ddY mice which ranged in age from 4 to 5 weeks were used after fasted overnight. Suspensions of Compounds a-c, which will be specified subsequently herein, in a 0.5% aqueous solution of carboxymethylcellulose sodium were orally administered at 3 mg/kg.
# After 1 hour, collagen [1 mg/kg, "Collagenreagent Form" (trade name), product of Moriya Sangyo Co., Ltd.] and serotonin hydrochloride (5 mg/kg, product of Sigma Chemical Co.) were injected through the candal veins.
# An investigation was made for mortality rates of mice within 10 minutes after the injection.
# Femoral artery = assay: Relaxation of vasoconstriction induced by supernatant of aggregated platelets, femoral artery; design: species or system male Japanese white rabbit; details: Oryctolagus cuniculus, aggregated platelet supernatant 1/100-fold dilution, read-out: EC50 (50% relaxation)
# Protocol: (§1) After a male Japanese white rabbit was anesthetized by intramuscular administration of ketamine (product of sankyo Company, Limited) at 50 mg/kg, a polyethylene-made catheter ["PE240" (trade name), manufactured by Becton Dickinson Co., Ltd.] was inserted into a carotid artery, and the blood was collected with a tube containing a 1/10 volume of a 3.8% aqueous solution of sodium citrate [NACALAI TESQUE, Inc.]. The blood so collected was centrifuged at 90 g (900 rpm) for 15 minutes ["05PR-22" (trade name), manufactured by Hitachi Koki Co., Ltd.] and platelet-rich plasma (PRP) was collected from the upper layer.
# (§2) After addition of an equiamount of buffer A (25 mM Tris-HCl, 130 mM NaCl, 1.5 mM EDTA, pH 7.4), to PRP, the mixture was centrifuged at 4° C. and 1,500 g (3,000 rpm) for 10 minutes. The thus-obtained platelet pellet was suspended again in buffer A, followed by centrifugation at 4° C. and 1,500 g (3,000 rpm) for 5 minutes. The resulting platelet pellet was suspended again in buffer B (25 mM Tris-HCl, 130 mM NaCl, 0.3 mM EDTA, pH 7.4), followed by centrifugation under the same conditions. […]
# (§3) After the vascular strip preparations had been left over for about 1 hour and their resting tensions had been confirmed to become stable, the tonicities of the vascular strip preparations were measured using the isometric transducers. […]
# Pulmonary artery = assay: Relaxation of vasoconstriction induced by supernatant of aggregated platelets, pulmonary artery; design: species or system male Japanese white rabbit; details: Oryctolagus cuniculus, aggregated platelet supernatant 1/100-fold dilution, read-out: EC50 (50% relaxation)
# Protocol: as §1, §2, §3
# [2] = tested on: platelet aggregation (platelet-rich plasma); assay: Inhibitory Effect on Canine Platelet Aggregation (ex vivo after oral administration, collagen + serotonin); type: in vivo, canine (male beagles); details: Canis lupus familiaris, 0.1 mg/kg oral, collagen + serotonin 1 μM, read-out: Aggregation inhibition rate
# Protocol: Four male beagles which ranged in age from 17 to 19 months were used after fasted overnight. A suspension of (-)-(S)-5-[3-[4-(4-fluorophenyl)piperazin-1-yl]propyl]-8-hydroxy-1-methyl- 1,4,5,6,7,8-hexahydropyrrolo[3,2-c]azepin-4-one (test compound a) in a 0.5% aqueous solution of carboxymethylcellulose sodium salt was orally administered at 0.1 mg/kg. Before the administration of the test compound and after elapsed times of 1, 2, 4 and 6 hours from the administration, blood samples were collected from the foreleg veins. The blood was sampled using syringes containing a 1/10 volume of a 3.8% aqueous solution of sodium citrate ["cytorate for ESR Measurement" (trade name), product of The Green Cross Corp.].
# Each collected blood sample was centrifuged at room temperature and 190 g for 7 minutes, and the upper layer, platelet-rich plasma (PRP), was collected. The remaining blood was centrifuged at 1,500 g for 10 minutes, and the upper layer, platelet-poor plasma (PPP), was collected. Using collagen [final concentration: 0.03 to 5 μg/ml, "Collagenreagent Form" (trade name), product of Moriya Sangyo Co., Ltd.] and serotonin (final concentration: 1 μM, serotonin hydrochloride, product of Sigma Chemical Co.) as a platelet proaggrecant, the platelet aggregating ability was measured by the Born turbidimetry. Specifically, using PPP as a control, a solution of calcium chloride (product of NACALAI TESQUE, INC.) was added to PRP at 37° C. to give a final concentration of 1 mM. After 2 minutes, the proaggrecant was added. Variations in transmittance, which took place in the course of subsequent 10 minutes, were measured using a platelet aggregometer measuring instrument ["PAM-8C" (trade name), manufactured by MEBANCS, INC.], and its maximum value was recorded as a platelet aggregation rate (%). […] As an aggregation inhibition rate, the proportion of an aggregation rate after the administration of the test compound relative to an aggregation rate before the administration of the test compound was shown in percentage.
# Basilar artery = assay: Relaxation of vasoconstriction induced by supernatant of aggregated platelets, basilar artery; design: species or system male Japanese white rabbit; details: Oryctolagus cuniculus, aggregated platelet supernatant 1/100-fold dilution, read-out: EC50 (50% relaxation)
# Protocol: as §1, §2, §3
# Mesenteric artery = assay: Relaxation of vasoconstriction induced by supernatant of aggregated platelets, mesenteric artery; design: species or system male Japanese white rabbit; details: Oryctolagus cuniculus, aggregated platelet supernatant 1/100-fold dilution, read-out: EC50 (50% relaxation)
# Protocol: as §1, §2, §3
# Coronary artery = assay: Relaxation of vasoconstriction induced by supernatant of aggregated platelets, coronary artery; design: species or system male Japanese white rabbit; details: Oryctolagus cuniculus, aggregated platelet supernatant 1/100-fold dilution, read-out: EC50 (50% relaxation)
# Protocol: as §1, §2, §3
# Renal artery = assay: Relaxation of vasoconstriction induced by supernatant of aggregated platelets, renal artery; design: species or system male Japanese white rabbit; details: Oryctolagus cuniculus, aggregated platelet supernatant 1/100-fold dilution, read-out: EC50 (50% relaxation)
# Protocol: as §1, §2, §3
# [3] = tested on: gastrocnemius-plantaris-sole muscle (GPS muscle); assay: Test in Rat Intermittent Claudication Model (muscle contraction force after collagen infusion); type: in vivo, male Wistar rats; details: 20 minutes after collagen infusion
# Protocol: Based on the methods proposed by Angersbach, D. et al. in Int. J. Microcirc. Clin. Exp., 7, 15-30 (1988) and by Loots, W. et al. in Am. J. Physiol. 265, H158-H164 (1993), an intermittent claudication model was designed as will be described next. Firstly, male Wistar rats which ranged in age from 9 to 10 weeks were ligated at right femoral arteries under anesthesia with pentobanbital [40 mg/kg, intraperitoneal administration, "Nembutal Injection" (trademark), product of Dainabot Co., Ltd.] and were fed for 1 week. After fasted overnight, a suspension of (-)-(S)-5-[3-[4-(4-fluorophenyl)piperazin-1-yl]propyl]-8-hydroxy-1-methyl- 1,4,5,6,7,8-hexahydropyrrolo[3,2-c]azepin-4-one (test compound a) in a 0.5% aqueous solution of carboxymethylcellulose sodium salt was orally administered at 1, 3 and 10 mg/kg, respectively.
# After an elapsed time of 60 minutes since the administration, each rat was subjected to anesthetization with urethan ([…], intraperitoneal administration, product of Sigma Chemical Co.) and α-chloralose ([…], intraperitoneal administration, product of NACALAI TESQUE, INC.). To administer collagen into artery, a cannula ["SP-31" (trade name), manufactured by Natsume Seisakusho Co., Ltd.] was inserted through the left carotid artery such that its leading end was located on a proximal side of the branching point of the iliac artery. Thereafter, the rat was held in a prone position, and the skin of the right hind leg was flayed to expose the gastrocnemius-plantaris-sole muscle (GPS muscle). The Achilles tendon was bound and cut off, connected to an isometric tension meter ["CBE-1 10 kg" (trade name), manufactured by MINEBEA Co., Ltd.], and then held in place with a resting tension of about 100 g. […] Contraction force produced upon electric stimulation was recorded [amplifier: "AP-620G" (trade name), manufactured by Nihon Kohden Corporation, recorder: "WT-645G" (trade name), manufactured by Nihon Kohden Corporation]. […]
Structure (SMILES),Mortality rate [1],EC50 (Femoral artery),EC50 (Pulmonary artery),inhibition at 0.1 mg/kg ([2]; 1 hr after administration),inhibition at 0.1 mg/kg ([2]; 2 hr after administration),inhibition at 0.1 mg/kg ([2]; 4 hr after administration),inhibition at 0.1 mg/kg ([2]; 6 hr after administration),EC50 (Basilar artery),EC50 (Mesenteric artery),EC50 (Coronary artery),EC50 (Renal artery),Contraction force ([3]; 1 mg/kg oral),Contraction force ([3]; 3 mg/kg oral),Contraction force ([3]; 10 mg/kg oral)
"Cn1ccc2c1C(O)CCN(CCCN1CCN(c3ccc(F)cc3)CC1)C2=O (racemic) [Compound b, (±)-5-[3-[4-(4-fluorophenyl)piperazin-1-yl]propyl]-8-hydroxy-1-methyl-1,4,5,6,7,8-hexahydropyrrolo[3,2-c]azepin-4-one]",25%,–,–,–,–,–,–,–,–,–,–,–,–,–
"Cn1ccc2c1[C@@H](O)CCN(CCCN1CCN(c3ccc(F)cc3)CC1)C2=O [Compound a, (-)-(S)-5-[3-[4-(4-fluorophenyl)piperazin-1-yl]propyl]-8-hydroxy-1-methyl-1,4,5,6,7,8-hexahydropyrrolo[3,2-c]azepin-4-one]",10%,328 ± 112 nM,14 ± 3 nM,99.7 ± 0.3%,99.8 ± 0.2%,99.3 ± 0.7%,72.5 ± 16.1%,138 ± 55 nM,32 ± 22 nM,254 ± 54 nM,246 ± 79 nM,93 ± 17 g,116 ± 15 g,122 ± 10 g
"Cc1cn(C)c2c1C(=O)N(CCCN1CCN(c3ccc(F)cc3)CC1)CCC2O (stereo not shown) [Compound c, 5-[3-[4-(4-fluorophenyl)piperazin-1-yl]propyl]-8-hydroxy-1,3-dimethyl-1,4,5,6,7,8-hexahydropyrrolo[3,2-c]azepin-4-one]",30%,–,–,–,–,–,–,–,–,–,–,–,–,–
